The test system of data set [1] is TZM-bl cell line. It is filed as cell-based. Particulars: human, 1 μM. The method, boiled down:
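Luciferase read-out 48 h post-infection; compound at 1 μM during HIV-1NL4-3 infection of TZM-bl cells. Percent inhibition scaled to DMSO wild-type virus (0%) and DMSO Nef-defective virus (100% of Nef-dependent effect). Viability checked separately in uninfected cells by Cell Titer Blue.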

In data set [2] the target is HIV-1 NefNL4-3 (Human immunodeficiency virus type 1 group M subtype B, UniProt P03406, A33V/T15A/T51N/V11I). Briefly: Surface plasmon resonance binding to recombinant full-length Nef (NL4-3). Particulars: for RU30/RUNef (extent of binding): response units at 30 μM relative to Nef immobilized on the SPR chip. Background: Surface plasmon resonance follows binding to a sensor surface in real time, without labels.

The test system of data set [3] is HIV-1NL4-3. Briefly: HIV-1 infectivity assay in TZM-bl reporter cell line (LTR-luciferase, 48 h). Particulars: Human immunodeficiency virus 1, TZM-bl. It is filed as cell-based. The procedure, abridged:
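TZM-bl cells infected with HIV-1NL4-3 ± compound (1 μM), luciferase measured at 48 h. Normalization: DMSO/wild-type = 0% inhibition, DMSO/Nef-defective = 100% of Nef-dependent effect.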

Setting [4] is: 1.0 μM, TZM-bl reporter cell line, Table 4, read-out: % Infectivity Inhibition.
Setting [5] is: 48 h, Table 1, TZM-bl cells, 1 μM, 48 h, 100% = Nef-defective HIV-1, read-out: HIV-1 Infectivity % Inhibition Norm. to Δ-Nef @ 1 μM.
The mark [6] stands for this setting: KD, M, Table 4, SPR fit 1:1 Langmuir, KD = koff/kon.
Setting [7] is: Table 4, 1:1 Langmuir fit, T = 1/koff.

SMILES strings stand for the structures. Like-named read-outs stand apart in the source and are kept apart here.

As to `Oc1c(CCc2ccc(F)cc2)c(C2CCN(Cc3ccccn3)CC2)nn1-c1nc2ccccc2[nH]1` [Compound I-802, 1-(1H-1,3-benzodiazol-2-yl)-4-[2-(4-fluorophenyl)ethyl]-3-{1-[(pyridin-2-yl)methyl]piperidin-4-yl}-1H-pyrazol-5-ol], the “% Cell Viability” value in data set [1] is 99.3%. The “Percent Viability @ 1 μM (TZM-bl cells)” value in data set [1] was determined as 99.3%. In addition, the Kd was 447 nM in data set [2]; 182 nM in data set [2] (KD, M, Table 4, SPR fit 2-step induced fit, KD = koff/kon × koff2/(koff2 + kon2)); 182 nM in data set [2] (Nef NL4-3 Binding, SPR 2-state fitting KD, Table 1, 2-step induced-fit model). In data set [2] (Table 4, 2-step induced fit, T = 1/koff2), the “T, minutes (residence time)” value amounted to 2.21E + 01 minutes. For the same compound, in data set [2], the “RU30/RUNef (extent of binding)” value is on record as 2.48E- 03. Moreover, the inhibition at 1 µM in data set [3] (setting [4]) and in data set [3] (setting [5]) was 4.4% in each case.

As for `COc1cccc(-c2nn(-c3nc4ccccc4[nH]3)c(O)c2CCc2ccc(F)cc2)n1` [Compound I-138, 1-(1H-1,3-benzodiazol-2-yl)-4-[2-(4-fluorophenyl)ethyl]-3-(6-methoxypyridin-2-yl)-1H-pyrazol-5-ol], the “Percent Viability @ 1 μM (TZM-bl cells)” value in data set [1] stood at 95.8%. Besides, the Kd in data set [2] was 3960 nM. The inhibition at 1 µM in data set [3] (setting [5]) was 48.2%.

Consider `CS(=O)(=O)c1cccc(-c2nn(-c3nc4cccnc4[nH]3)c(O)c2CCC2CCOCC2)c1` [Compound I-305, 1-{3H-imidazo[4,5-b]pyridin-2-yl}-3-(3-methanesulfonylphenyl)-4-[2-(oxan-4-yl)ethyl]-1H-pyrazol-5-ol], for which the “% Cell Viability” value in data set [1] was 96.8%. In data set [1], the “Percent Viability @ 1 μM (TZM-bl cells)” value is 96.8%. For the same compound, the Kd in data set [2] and in data set [2] (setting [6]) was 744 nM throughout. In addition, the “T, minutes (residence time)” value in data set [2] (setting [7]) turned out to be 1.13E + 01 minutes. In addition, the “RU30/RUNef (extent of binding)” value in data set [2] is given as 2.13E- 03. For the same compound, the inhibition at 1 µM in data set [3] (setting [4]) and in data set [3] (setting [5]) was 59.3% in each case.

As for `CC(=O)N1CCC(Cc2nn(-c3nc4ccccc4[nH]3)c(O)c2CCc2ccc(F)cc2)CC1` [Compound I-772, 1-(4-{[1-(1H-1,3-benzodiazol-2-yl)-4-[2-(4-fluorophenyl)ethyl]-5-hydroxy-1H-pyrazol-3-yl]methyl}piperidin-1-yl)ethan-1-one], the “Percent Viability @ 1 μM (TZM-bl cells)” value in data set [1] worked out at 100.1%. Besides, the Kd in data set [2] was determined as 858 nM. Further, the inhibition at 1 µM in data set [3] (setting [5]) was found to be 49.6%.

For `Oc1c(CCc2ccc(F)cc2)c(CC2CCNCC2)nn1-c1nc2ccccc2[nH]1` [Compound I-553, 1-(1H-1,3-benzodiazol-2-yl)-4-[2-(4-fluorophenyl)ethyl]-3-[(piperidin-4-yl)methyl]-1H-pyrazol-5-ol], the “Percent Viability @ 1 μM (TZM-bl cells)” value in data set [1] amounted to 62.3%. Besides, in data set [2], the Kd turned out to be 1230 nM. The inhibition at 1 µM in data set [3] (setting [5]) worked out at 74.3%.

In the case of `CC(=O)N1CCC(CCc2c(-c3ccc(C(F)(F)F)cn3)nn(-c3nc4cc(Br)ccc4[nH]3)c2O)CC1` [Compound I-709, 1-(4-{2-[1-(5-bromo-1H-1,3-benzodiazol-2-yl)-5-hydroxy-3-[5-(trifluoromethyl)pyridin-2-yl]-1H-pyrazol-4-yl]ethyl}piperidin-1-yl)ethan-1-one], in data set [1], the “% Cell Viability” value amounted to 74.0% and the “Percent Viability @ 1 μM (TZM-bl cells)” value came out at 74.0%. Moreover, in data set [2], the Kd was 26.3 nM and the “RU30/RUNef (extent of binding)” value came out at 8.85E- 04. In addition, in data set [2] (setting [6]), the Kd turned out to be 26.3 nM. Moreover, the “T, minutes (residence time)” value in data set [2] (setting [7]) stood at 5.18E + 02 minutes. The inhibition at 1 µM in data set [3] (setting [4]) was 66.7%. Besides, in data set [3] (setting [5]), the inhibition at 1 µM was 66.7%.

`Cc1ccn(CCc2c(-c3ccc(C(F)(F)F)cc3)nn(-c3nc4cccnc4[nH]3)c2O)n1` [Compound I-303, 1-{3H-imidazo[4,5-b]pyridin-2-yl}-4-[2-(3-methyl-1H-pyrazol-1-yl)ethyl]-3-[4-(trifluoromethyl)phenyl]-1H-pyrazol-5-ol]: the “% Cell Viability” value in data set [1] came out at 98.3%. Further, the “Percent Viability @ 1 μM (TZM-bl cells)” value in data set [1] came to 98.3%. The Kd in data set [2] and in data set [2] (setting [6]) was 396 nM in each case. The “T, minutes (residence time)” value in data set [2] (setting [7]) came out at 9.47E + 01 minutes. In data set [2], the “RU30/RUNef (extent of binding)” value came to 3.06E- 03. Further, the inhibition at 1 µM in data set [3] (setting [4]) was found to be 40.1%; in data set [3] (setting [5]) it was 40.6%.

For orientation: Kd means the concentration at which binding is half-saturated. What is called inhibition is the percentage by which the read-out fell short of the control.

(Values after patent publication US20220380341A1, “INHIBITORS OF HIV-1 NEF FOR THE TREATMENT OF HIV DISEASE” (priority 2018, published 2022).)
